Source: patent publication US11214594B2, “Antimicrobial peptide having synergistic antibacterial effect with antibiotics on multidrug resistant bacteria, and use thereof” (priority 2016, dated 2022)
In brackets after ≈: the same amount, converted by molar mass. Where a SMILES comes first, the peptide text is derived from it.

Legend:
A. baumannii [1] = experiment: MIC of antibiotic during combined treatment with antimicrobial peptide; assay type: cell-based, Acinetobacter baumannii; conditions: A. baumannii
How it was run: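 Read-out is the MIC of each combined solution, obtained from MH-medium dilutions of antibiotic added well by well, with a reversed-condition run as well.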

MDRAB 12035 [2] = experiment: as above; assay type: cell-based, Acinetobacter baumannii
How it was run: (§1)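 Strains in MH medium at 2×10^6 CFU/ml were mixed with peptide diluted stepwise (2:1) from its MIC, then antibiotic dilutions in MH medium were added to give the antibiotic MIC. The reversed set-up, peptide titrated against fixed antibiotic, gave the peptide MIC.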

MDRST 8007 = experiment: Minimal inhibitory concentration (MIC), single agent; assay type: cell-based, Salmonella typhimurium; conditions: agent alone
How it was run: (§2)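 Broth microdilution in MH medium: bacterial strains diluted to 2×10^6 CFU were mixed with equal volumes of peptide serially diluted twofold in MH medium.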

A. baumannii [3] = experiment: microbe, parasite or virus in culture; assay type: cell-based, Acinetobacter baumannii
How it was run: as §2

MDRAB 12035 [4] = experiment: microbe, parasite or virus in culture; assay type: cell-based, Acinetobacter baumannii
How it was run: as §2

S. epidermidis = experiment: microbe, parasite or virus in culture; assay type: cell-based, Staphylococcus epidermidis
How it was run: as §2

A. baumannii [5] = experiment: MIC of antimicrobial peptide during combined treatment with antibiotic; assay type: cell-based, Acinetobacter baumannii
How it was run: as §1

[6] = combined with peptide at 1 μg/ml
[7] = combined with peptide at 2 μg/ml
[8] = combined with peptide at 4 μg/ml
[9] = combined with peptide at 6 μg/ml
[10] = combined with peptide at 8 μg/ml
[11] = combined with peptide at 16 μg/ml
[12] = combined with peptide at 32 μg/ml
[13] = combined with peptide at 64 μg/ml
[14] = peptide treatment concentration 1 μg/ml
[15] = peptide treatment concentration 2 μg/ml
[16] = peptide treatment concentration 4 μg/ml
[17] = peptide treatment concentration 6 μg/ml
[18] = peptide treatment concentration 8 μg/ml
[19] = peptide treatment concentration 16 μg/ml
[20] = peptide treatment concentration 32 μg/ml
[21] = peptide treatment concentration 64 μg/ml
[22] = erythromycin 4 μg/ml (Conc./MIC 1/8)
[23] = erythromycin 8 μg/ml (Conc./MIC 1/4)
[24] = erythromycin 16 μg/ml (Conc./MIC 1/2)
[25] = erythromycin 32 μg/ml (Conc./MIC 1)
[26] = linezolid 32 μg/ml (Conc./MIC 1/8)
[27] = linezolid 64 μg/ml (Conc./MIC 1/4)

CC[C@H](C)[C@H](NC(=O)[C@H](CCCCN)NC(=O)[C@H](Cc1c[nH]c2ccccc12)NC(=O)[C@@H](N)CCCNC(=N)N)C(=O)N[C@@H](Cc1ccccc1)C(=O)N[C@@H](CCCCN)C(=O)N[C@@H](CCCCN)C(=O)N[C@H](C(=O)N1CCC[C@H]1C(=O)N[C@@H](CCCCN)C(=O)N[C@@H](Cc1ccccc1)C(=O)N[C@@H](CC(C)C)C(=O)N[C@@H](Cc1c[nH]cn1)C(=O)N[C@@H](CO)C(=O)N[C@@H](C)C(=O)N[C@@H](CCCCN)C(=O)N[C@@H](CCCCN)C(=O)N[C@@H](Cc1ccccc1)C(N)=O)[C@@H](C)CC [PapMA-1, RWK IFK KIP KFL HSA KKF-NH2] (H-RWKIFKKIPKFLHSAKKF-NH2; N-terminus assumed)
Antibiotic MIC, Erythromycin (A. baumannii [1]; [6]): 32 µg/mL | Antibiotic MIC, Linezolid (A. baumannii [1]; [6]): >128 µg/mL | Antibiotic MIC, Vancomycin (A. baumannii [1]; [6]): >128 µg/mL | Antibiotic MIC, Erythromycin (A. baumannii [1]; [7]): 16 µg/mL | Antibiotic MIC, Linezolid (A. baumannii [1]; [7]): 128 µg/mL | Antibiotic MIC, Vancomycin (A. baumannii [1]; [7]): 128 µg/mL | Antibiotic MIC, Erythromycin (A. baumannii [1]; [8]): 8 µg/mL | Antibiotic MIC, Linezolid (A. baumannii [1]; [8]): 32 µg/mL | Antibiotic MIC, Vancomycin (A. baumannii [1]; [8]): 32 µg/mL | Antibiotic MIC, Erythromycin (A. baumannii [1]; [9]): 2 µg/mL | Antibiotic MIC, Linezolid (A. baumannii [1]; [9]): 32 µg/mL | Antibiotic MIC, Vancomycin (A. baumannii [1]; [9]): 16 µg/mL | Antibiotic MIC, Erythromycin (A. baumannii [1]; [10]): 0.5 µg/mL | Antibiotic MIC, Linezolid (A. baumannii [1]; [10]): 8 µg/mL | Antibiotic MIC, Vancomycin (A. baumannii [1]; [10]): 8 µg/mL | Antibiotic MIC, Erythromycin (A. baumannii [1]; [11]): 0.125 µg/mL | Antibiotic MIC, Linezolid (A. baumannii [1]; [11]): 4 µg/mL | Antibiotic MIC, Vancomycin (A. baumannii [1]; [11]): 8 µg/mL | Antibiotic MIC, Erythromycin (A. baumannii [1]; [12]): 0.0625 µg/mL | Antibiotic MIC, Linezolid (A. baumannii [1]; [12]): 4 µg/mL | Antibiotic MIC, Vancomycin (A. baumannii [1]; [12]): 2 µg/mL | Antibiotic MIC, Erythromycin (A. baumannii [1]; [13]): 0 µg/mL | Antibiotic MIC, Linezolid (A. baumannii [1]; [13]): 0 µg/mL | Antibiotic MIC, Vancomycin (A. baumannii [1]; [13]): 0 µg/mL | Erythromycin MIC during combined treatment with peptide (MDRAB 12035 [2]; [14]): 32 µg/mL | Linezolid MIC during combined treatment with peptide (MDRAB 12035 [2]; [14]): >128 µg/mL | Vancomycin MIC during combined treatment with peptide (MDRAB 12035 [2]; [14]): >128 µg/mL | Erythromycin MIC during combined treatment with peptide (MDRAB 12035 [2]; [15]): 32 µg/mL | Linezolid MIC during combined treatment with peptide (MDRAB 12035 [2]; [15]): 128 µg/mL | Vancomycin MIC during combined treatment with peptide (MDRAB 12035 [2]; [15]): >128 µg/mL | Erythromycin MIC during combined treatment with peptide (MDRAB 12035 [2]; [16]): 16 µg/mL | Linezolid MIC during combined treatment with peptide (MDRAB 12035 [2]; [16]): 64 µg/mL | Vancomycin MIC during combined treatment with peptide (MDRAB 12035 [2]; [16]): 128 µg/mL | Erythromycin MIC during combined treatment with peptide (MDRAB 12035 [2]; [17]): 4 µg/mL | Linezolid MIC during combined treatment with peptide (MDRAB 12035 [2]; [17]): 32 µg/mL | Vancomycin MIC during combined treatment with peptide (MDRAB 12035 [2]; [17]): 32 µg/mL | Erythromycin MIC during combined treatment with peptide (MDRAB 12035 [2]; [18]): 0.5 µg/mL | Linezolid MIC during combined treatment with peptide (MDRAB 12035 [2]; [18]): 16 µg/mL | Vancomycin MIC during combined treatment with peptide (MDRAB 12035 [2]; [18]): 16 µg/mL | Erythromycin MIC during combined treatment with peptide (MDRAB 12035 [2]; [19]): 0.25 µg/mL | Linezolid MIC during combined treatment with peptide (MDRAB 12035 [2]; [19]): 8 µg/mL | Vancomycin MIC during combined treatment with peptide (MDRAB 12035 [2]; [19]): 16 µg/mL | Erythromycin MIC during combined treatment with peptide (MDRAB 12035 [2]; [20]): 0.125 µg/mL | Linezolid MIC during combined treatment with peptide (MDRAB 12035 [2]; [20]): 4 µg/mL | Vancomycin MIC during combined treatment with peptide (MDRAB 12035 [2]; [20]): 8 µg/mL | Erythromycin MIC during combined treatment with peptide (MDRAB 12035 [2]; [21]): 0 µg/mL | Linezolid MIC during combined treatment with peptide (MDRAB 12035 [2]; [21]): 0 µg/mL | Vancomycin MIC during combined treatment with peptide (MDRAB 12035 [2]; [21]): 0 µg/mL | Minimal inhibitory concentration MIC (MDRST 8007): 64 µg/mL (≈ 27.8 µM) | Minimal inhibitory concentration MIC (A. baumannii [3]): 64 µg/mL (≈ 27.8 µM) | Peptide MIC, peptide alone (A. baumannii [3]): 64 µg/mL | Minimal inhibitory concentration MIC (MDRAB 12035 [4]): 64 µg/mL (≈ 27.8 µM) | Peptide MIC, peptide alone (MDRAB 12035 [4]): 64 µg/mL | Minimal inhibitory concentration MIC (S. epidermidis): >128 µg/mL | Peptide MIC during treatment with antibiotic (A. baumannii [5]; [22]): 4 µg/mL | Peptide MIC during treatment with erythromycin (A. baumannii [5]; [22]): 4 µg/mL | Peptide MIC during treatment with antibiotic (A. baumannii [5]; [23]): 4 µg/mL | Peptide MIC during treatment with erythromycin (A. baumannii [5]; [23]): 4 µg/mL | Peptide MIC during treatment with antibiotic (A. baumannii [5]; [24]): 2 µg/mL | Peptide MIC during treatment with erythromycin (A. baumannii [5]; [24]): 2 µg/mL | Peptide MIC during treatment with antibiotic (A. baumannii [5]; [25]): 0 µg/mL | Peptide MIC during treatment with erythromycin (A. baumannii [5]; [25]): 0 µg/mL | Peptide MIC during treatment with antibiotic (A. baumannii [5]; [26]): 4 µg/mL | Peptide MIC during treatment with linezolid (A. baumannii [5]; [26]): 4 µg/mL | Peptide MIC during treatment with antibiotic (A. baumannii [5]; [27]): 4 µg/mL | Peptide MIC during treatment with linezolid (A. baumannii [5]; [27]): 4 µg/mL | Peptide MIC during treatment with antibiotic (A. baumannii [5]; linezolid […] (Conc./MIC 1)): 0 µg/mL
